# Reference: patent US20220252625A1, “TREATMENT AND DIAGNOSIS OF CHRONIC INFLAMMATORY CONDITIONS IN THE LOWER URINARY TRACT” (SELECTIMMUNE PHARMA AB, priority 2019, published 2022)
# “And” between values parts separate entries of the source, which are not always exact repeats. Equal entries are not always repeated. “Also recorded” adds a separate entry of the source.
# What was measured:
# Format in all cases: in vivo, human
# [1] = test system: patients with CPPS (Bladder, Urethral and Prostate Pain phenotype); assay: Clinical study, nine CPPS patients: symptom scoring (frequency, pain, QoL), side effects; conditions: for clinical response in the detailed patient description, words: one patient per block (Patient 1-9); for Long-term follow-up: Comment: s.c. 100 mg long-term regimen, observation 24-397 days
# Description: (§1) The effect of anakinra in the treatment of CPPS was studied in a clinical study. Inclusion criteria were CPPS mainly with the Bladder Pain phenotype, but also the with the Urethral and Prostate Pain phenotype. Exclusion criteria were uncontrolled diabetes mellitus, treatment for malignant disease within the preceding 10 years, pregnancy and age <18 years and ongoing infectious diseases, including urinary tract infections, and neutropenia (<1.5×10^9/L). Patients gave informed consent for the use of unidentified personal clinical data for research purposes. Included patients were examined using clinical standard methods to rule out any ongoing disease. Blood and serum for hemoglobulin, liver and kidney function tests and White Blood Cell (WBC) counts were analysed. Urine was obtained for dip stick test (leukocytesteras for WBC estimation, the nitur test for ruling out bacteriuria), standard urinary Interleukins (IL6, IL8 and IL1b) and for urine culture. Cystoscopy and CT urography were performed in all patients. Blood and serum analysis and cystoscopy were repeated approximately two weeks after the start of treatment, and after approximately three months. Nine patients were recruited (Table 2).
# After inclusion, patients were treated with anakinra 100 mg by self-administrated subcutaneous injection, repeated once daily as a maximum, or (if relief of symptoms and pain) on demand when symptoms or pain recurred. Regularly symptom scoring on frequency, supra-pubic/bladder pain/prostate/urethral pain and Quality of Life was performed to evaluate treatment effect.
# [2] = test system: patients with bladder pain syndrome (BPS); assay: Open label trial, ten BPS patients: symptoms, quality of life, side effects
# Procedure: The inventors have tested the hypothesis that IL-1RA treatment may be useful to alleviate bladder pain. Ten patients with BPS were enrolled in an investigator-driven open trial. The patients received daily Kineret treatment (100 mg) for seven days. Treatment was then transiently interrupted and if the symptoms returned, treatment was resumed.
# a) Schematic of the study protocol. Ten patients with a long history of BPS (ref EAU guidelines) were enrolled after informed consent and instructed to fill in a questionnaire detailing frequency of urination, pain, frequency of pain medication and quality of life. Laboratory samples were obtained at diagnosis, after the initiation of Kineret treatment (n=10), during the “treatment break” and after continuation of Kineret treatment (n=9). Neuropeptides involved in the pain response (Substance P) were quantified in urine. Peripheral blood RNA was subjected to genome wide transcriptomic analysis to define molecular effects of Kineret treatment.
# In this study, we addressed if IL-1RA treatment might be efficient in patients with chronic bladder pain. We conducted an explorative, open label trial in patients with BPS (Table 5). Patients received daily subcutaneous injections of Anakinra (100 mg) for seven days and the therapeutic effects were recorded. To address potential placebo effects, treatment was transiently interrupted for a maximum of 14 days and when the symptoms returned, treatment was resumed and continued with individual treatment regimes. […] In the remaining patients, bladder pathology was not detected. During the study, patients were instructed to keep a symptom journal recording the sensation of pain and the frequency of micturition.
# IL-1β = assay: Urine IL-1β concentration, patients with chronic cystitis; conditions: FIG. 5
# Procedure: Samples: Blood and urine samples for investigation of inflammatory processes as well as genetic and proteomic analyses.
# For evaluation of the levels of systemic and local inflammatory processes, analyses of CRP, neutrophil count and Interleukins are performed in serum and urine.
# To be able to define a treatment group where anakinra might serve as an effective therapeutic option, we searched for urine biomarkers. In addition to patient urine samples, samples were collected from healthy controls to compare urine concentrations of IL-1β and Substance P (SP). […] In contrast, SP concentrations was increased in patients during maximum symptoms (209 vs 75 pg/ml, P=0.003), indicating a biomarker for bladder inflammation (FIG. 2).
# [3] = test system: WBC and Interleukins (IL6, IL8 and IL1b) in urine; assay: Nine-patient study: estimated WBC and Interleukins in urine; conditions: prior, during or after treatment
# Description: as §1
# [4] = test system: patients with chronic pelvic pain syndrome (CPPS); assay: Investigator driven open trial, ten CPPS patients: symptoms, quality of life, side effects
# Procedure: Here we identify that IL-1RA treatment may be useful to alleviate bladder pain. The hypothesis was evaluated by enrolling ten patients with chronic pelvic pain syndrome, (CPPS) in an investigator driven open trial (see below and FIG. 7). The patients received daily anakinra treatment (100 mg) until a stable response was observed. Treatment was then transiently interrupted and when the symptoms returned, treatment was resumed. Patient 10 remained asymptomatic.
# Ten patients with a long history of CPPS were enrolled after informed consent (age, gender, disease profile) and instructed to fill in a questionnaire detailing frequency of urination, pain, frequency of pain medication and quality of life.
# A significant reduction in pain, urgency and frequency of urination was recorded in 9/10 patients (FIGS. 7c, 7d and 7e). Laboratory samples were obtained at diagnosis, after the initiation of anakinra treatment (n=10), during the “treatment break” and after continuation of anakinra treatment (n=9). Urine neuropeptides involved in the pain response (Substance P) were inhibited, with a biphasic response following the symptom score (FIG. 7f).
# [5] = post treatment, individual patients
# [6] = pre treatment baseline, individual patients
substance,measurement,setting,value
"anakinra: interleukin-1 receptor antagonist (r-metHuIL-1ra) produced in Escherichia coli; recombinant, slightly modified version of the human interleukin-1 receptor antagonist protein",side effects,[1]; 100 mg s.c.,sparse and mild; also recorded: two cases of skin reaction at the place of injection; also recorded: one case of headache post injection; also recorded: without side effects; also recorded: minor headache
same,Side effect,"[1]; 100 mg s.c., individual patients",local s.c. irritation; also recorded: not reported; also recorded: headache post inj
same,"clinical response in the detailed patient description, words",[1]; 100 mg s.c.,"subjectively significantly improved with a clear reduction in frequency and local pain from the bladder; also recorded: pain relief followed immediately; also recorded: constant relief of symptoms; also recorded: the urge, frequency and bladder pain dramatically decreased; also recorded: the urgency and frequency was dramatically reduced; also recorded: relief of fever attacks and arthralgia, as well as reduced urgency and frequency"
same,"clinical response in the detailed patient description, words","[1]; 100 mg s.c., listed as Anakinra",significant symptom and pain relief; also recorded: constant relief of symptoms
same,maximum effect generally lasted,[1]; after one s.c. inj. of 100 mg,2 to 3 days
same,maximum effect on symptoms seen within,"[1]; after one s.c. inj. of 100 mg, all nine patients",1 to 24 h
same,"symptoms as measured by symptom scoring, words",[1]; all patients,dramatically reduced symptoms
same,"treatment effect during long-term follow-up, words",[1]; all patients,consistent
same,"experienced quality of life (QoL), words","[1]; human, in vivo","increased in all patients; also recorded: highly increased, or increased"
same,"number of micturitions at night-time, words","[1]; human, in vivo",generally reduced
same,"number of micturitions during daytime, words","[1]; human, in vivo",reduced in all patients
same,"pain experienced by the patients, words","[1]; human, in vivo",decreased dramatically
same,patients completely free from pain,[1]; of nine patients,five out of the nine
same,Frequency (nycturia) post (number of micturations during nighttime),[1]; [5],(0) and (1) (6×) and (2)
same,Frequency post (number of micturations during daytime),[1]; [5],5 (2×) and 4 (2×) and 6 (3×) and 8
same,Frequency (nycturia) pre (number of micturations during nighttime),[1]; [6],(1-2) and (5) (3×) and (3) (2×) and (4) and (1)
same,Frequency pre (number of micturations during daytime),[1]; [6],12 (4×) and 11 and 8 (2×) and 7
same,Long-term follow-up: Comment,"[1]; individual patients, 100 mg s.c. dosing 1 per 2-4 weeks","increased QoL,; also recorded: symptom free"
same,Long-term follow-up: Comment,"[1]; individual patients, 100 mg s.c. dosing 1 per 2-3 days",highly increased QoL
same,Long-term follow-up: Comment,"[1]; individual patients, 100 mg s.c. dosing 1 per day","highly increased QoL,; also recorded: planned cystectomy postponed"
same,Long-term follow-up: Comment,"[1]; individual patients, 100 mg s.c. dosing 1 per week","highly increased QoL; also recorded: highly increased QoL,; also recorded: highly increased QoL;"
same,QoL reduction post,"[1]; score 0-6, 0 not reduced QoL, post treatment, individual patients",2 (2×) and 1 (2×) and 0 (5×)
same,Pain post,"[1]; score 0-6, 0 symptom-free, post treatment, individual patients",2 (2×) and 1 (2×) and 0 (5×)
same,Pain pre,"[1]; score 0-6, 6 severe pain, pre treatment baseline, individual patients",5 (3×) and 5-6 and 6 and 4 (4×)
same,QoL reduction pre,"[1]; score 0-6, 6 severely reduced QoL, pre treatment baseline, individual patients",5 (3×) and 5-6 and 6 (2×) and 4 (3×)
same,patients with dramatic clinical improvement,"[2]; daily 100 mg for seven days, ten BPS patients",9/10
same,lasting therapeutic effects,"[2]; human, in vivo",3 days
same,"quality of life, words","[2]; human, in vivo",increased quality of life
same,side effects,"[2]; human, in vivo",Two patients reported local irritation at the injection site
same,"symptom score (pain and frequency), words","[2]; human, in vivo",reduction in symptom score
same,"quality of life, words","[2]; human, in vivo, listed as Kineret",marked increase in quality of life
same,"symptom relief at the onset of treatment, median",[2]; median,2 h
same,"patients with complete, or close to complete clinical response",[2]; of ten patients,Nine of the patients
same,relief of symptoms after the first injection,[2]; one patient with very severe BPS/ICS,1 to 2 h
same,duration of symptom relief,[2]; range over patients,0.5 to 8 days
same,time to symptom relief after the first dose,[2]; range over patients,1 to 6 h
same,urine IL-1β levels after Anakinra treatment,IL-1β,do not change
same,"estimated WBC and Interleukins in urine, words",[3],not significantly increased
same,"symptom score (pain and frequency), words",[4]; P<0.01,reduction in symptom score
same,"quality of life, words",[4]; P<0.02,increase in quality of life
same,patients with dramatic clinical effects,"[4]; daily 100 mg, ten CPPS patients",9/10
same,duration of symptom relief,[4]; range over patients,0.5 to 8 days
same,time to symptom relief after the first dose,[4]; range over patients,1 to 6 h
same,"patients with significant reduction in pain, urgency and frequency of urination",[4]; ten CPPS patients,9/10
same,side effects,"[4]; ten CPPS patients, 100 mg",Two patients reported local irritation at the injection site; also recorded: one patient developed neutropenia
